Tests used:
[1] = system: NO production in celiac macrophages; test: NO production of celiac macrophages from orally dosed mice; assay type: in vivo; conditions: 1% suspension in olive oil, forced oral administration once a day, 12 times in 15 days, 10 or 30 ml/kg, ddY mice
Experimental: The compound (7) in Example 1 was suspended in olive oil (Nacalai Tesque) at a concentration of 1% to prepare a 1% suspension of the compound (7). The 1% suspension of the compound (7) prepared as described above was administered to ddY mice (Japan SLC, female, 7 weeks old) by forced oral administration once a day, 12 times in 15 days, at a dosage of 10 or 30 ml/kg. Tap water was similarly administered by forced oral administration as a control. Each group consisted of 3 mice. Thereafter, 4 ml of RPMI 1640 medium (Bio Whittaker, Code. 12-702F) containing 10% fetal calf serum was intraperitoneally injected. Media removed from 3 mice after extensive massage were combined to obtain celiac cells. The celiac cells were suspended in RPMI 1640 medium containing 10% fetal calf serum at a concentration of 10^6 cells/ml. 500 μl of the suspension was added to each well of a 48-well microtiter plate and the plate was incubated at 37° C. for 2 hours in the presence of 5% CO2. Adhesive cells obtained by removing the culture supernatant were used as celiac macrophages. 500 μl of fresh Dulbecco's modified Eagle's medium (Bio Whittaker, Code. 12-917F) without Phenol Red containing 10% fetal calf serum and 2 mM L-glutamine was added to each well. […] The concentration of NO2^− resulting from oxidation of NO in the medium was then measured as described in Example 6. […]

[2] = system: HL-60 (ATCC CCL-240) cells; test: Apoptosis morphology in HL-60 cells under optical microscope; assay type: cell-based, Human; conditions: 24 hours
Experimental: HL-60 (ATCC CCL-240) cells were cultured at 37° C. in RPMI 1640 medium (Bio Whittaker) containing 10% fetal calf serum (JRH) which had been treated at 56° C. for 30 minutes and suspended in RPMI 1640 medium at a concentration of 2.5×10^5 cells/4.5 ml. […] each of aqueous solutions of the compound (2) at a concentration of 10, 50 or 100 mM, the compound (7) at a concentration of 500, 1000 or 1500 μM, the compound (9) at a concentration of 750, 1500 or 3000 μM, the compound (11) at a concentration of 750, 1500 or 3000 μM, or the compound (14) at a concentration of 750, 1500 or 3000 μM was added to 4.5 ml of the suspension. The mixtures were incubated at 37° C. for 24 hours in the presence of 5% CO2. The cultured cells were examined under an optical microscope.

[3] = system: PGE2 production in celiac macrophages; test: PGE2 production of celiac macrophages from orally dosed mice; assay type: in vivo; conditions: 1% suspension in olive oil, forced oral administration once a day, 12 times in 15 days, 10 or 30 ml/kg, ddY mice
Experimental: The compound (7) in Example 1 was suspended in olive oil (Nacalai Tesque) at a concentration of 1% to prepare a 1% suspension of the compound (7). The 1% suspension of the compound (7) prepared as described above was administered to ddY mice (Japan SLC, female, 7 weeks old) by forced oral administration once a day, 12 times in 15 days, at a dosage of 10 or 30 ml/kg. Tap water was similarly administered by forced oral administration as a control. Each group consisted of 3 mice. Thereafter, 4 ml of RPMI 1640 medium (Bio Whittaker, Code. 12-702F) containing 10% fetal calf serum was intraperitoneally injected. Media removed from 3 mice after extensive massage were combined to obtain celiac cells. The celiac cells were suspended in RPMI 1640 medium containing 10% fetal calf serum at a concentration of 10^6 cells/ml. 500 μl of the suspension was added to each well of a 48-well microtiter plate and the plate was incubated at 37° C. for 2 hours in the presence of 5% CO2. Adhesive cells obtained by removing the culture supernatant were used as celiac macrophages. […] After the plate was incubated for additional 12 hours, the amount of prostaglandin E2 (PGE2) was measured. […] After cultivation, the amount of prostaglandin E2 in the culture supernatant was measured using Prostaglandin E2 ELISA Kit (Neogen, Code. 404110). […]

Compound: O=C[C@H](O)[C@H]1OC[C@@H](O)[C@@H]1OC(=O)c1ccccc1 [Compound (7), 4-O-benzoyl-3,6-anhydro-D-galactose]
- activity of inhibiting NO production in celiac macrophages (LPS and IFN-γ) [1]: remarkable activity of inhibiting NO production
- final concentration at which condensation of nuclei, shrinking of cells and formation of apoptotic bodies were observed [2]: ≥ 100 µM
- activity of inhibiting PGE2 production in celiac macrophages (LPS) [3]: remarkable activity of inhibiting PGE2 production
